Data published in US20240400991A1, “IMMUNE CELLS WITH REDUCED ANDROGEN RECEPTOR (AR) LEVEL, AND METHODS OF THEIR USE TO ENHANCE ANTI-CANCER THERAPY” (Oregon Health & Science University, priority 2021, published 2024).

Legend:
OTI T cells in the tumor = experiment: Adoptive T cell therapy model: OT1 CD8 T cells in MCA-OVA tumor bearing RIP-mOVA animals
[1] = tested on: CD8 tumor infiltrating cells; experiment: Flow cytometry / intracellular cytokine staining of tumor infiltrating CD8 T cells in PPSM tumor bearing animals; format: in vivo, mouse; conditions: FIGS. 8I-8L
Description: (subcutaneous) injection once every 14 days.
Flow cytometry. Cells were incubated for 20 min on ice with e506 fixable viability dye and the following antibodies: […] (H57-597), CD4 (RM4-5), CD8 (53-6.7), CD44 (IM7), PD-1 (J43) and Thy1.1 (HIS51). Intracellular proteins Ki67 (SolA15), IFNγ (XMG1.2), TNFα (MP6-CT22), Nur77 (12.14) and Granzyme B (NGZB) were detected using the Fixation/Permeabilization Solution kit from BD Biosciences. All antibodies and viability dyes were purchased from eBioscience, Biolegend, or BD Biosciences. Data were collected with a Fortessa™ flow cytometer (BD Biosciences) and analyzed using FlowJo software (Tree Star). Unless noted otherwise in the figure legend, cells were gated through live/TCRβ+/CD8+ gates for analysis.
In vitro activation and intracellular cytokine staining.

SMILES: CNC(=O)c1ccc(N2C(=S)N(c3ccc(C#N)c(C(F)(F)F)c3)C(=O)C2(C)C)cc1F [enzalutamide, 4-(3-(4-cyano-3-(trifluoromethyl)phenyl)-5,5-dimethyl-4-oxo-2-thioxoimidazolidin-I-yl)-2-fluoro-N-methyl benzamide]
- cytokine production in tumor specific T cells (OTI T cells in the tumor; FIGS. 10A-10C legend): increased cytokine production
- IFNγ production of tumor-antigen specific CD8 T cells (OTI T cells in the tumor; female mice, FIG. 10C): increased
- IFNγ production of tumor-antigen specific CD8 T cells (OTI T cells in the tumor; male mice, chemically castrated (degarelix), FIG. 10B): increased
- polyfunctionality of tumor-associated CD8 T cells [1]: insufficient to improve the polyfunctionality
